In US11952365B2, “Anti-viral compounds” (Aligos Therapeutics, Inc., priority 2020, dated 2024):
Where two headings read alike, the source gives them in different places.

Columns and labels:
in vitro [1] = conditions: human
3CLpro = 3CLpro (Severe acute respiratory syndrome coronavirus 2, UniProt P0DTD1); experiment: SARS-CoV-2 3CLpro protease assay (duplex, SAMDI-MS); assay type: biochemical; set-up: For the duplex assay, 3CLpro and HRV3C was added; conditions: 3CLpro, 30 mins preincubation, class symbols; read-out: SARS-Cov-2 IC50
human cathepsin L = target: T1, human cathepsin L (Homo sapiens, UniProt P07711); experiment: cathepsin L assay; assay type: biochemical; conditions: 10 pM human cathepsin L, Z-FR-AMC 2 μM, class symbols
T1 construct: purchased R&D Systems
Summary of the method: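 Human cathepsin L at 10 pM was preincubated 30 min with compound, then reaction started with Z-FR-AMC (2 μM final). Fluorescence (355/460 nm) read every 2 min for 30 min; IC50 from four-parameter curve fit.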

[2] = system: SARS-CoV-2-GHB-03021/2020; experiment: microbe, parasite or virus in culture; assay type: cell-based; conditions: Severe acute respiratory syndrome coronavirus 2, Vero C1008, 96 h; read-out: VeroE6 + CP (EC50)
[3] = system: SARS-CoV-2-GHB-03021/2020; experiment: SARS-CoV-2 Infection Model in Huh7 Cells; assay type: cell-based; conditions: Severe acute respiratory syndrome coronavirus 2, Huh-7, 96 h, SARS-CoV-2, day 4 p.i., MTS
[4] = system: human beta-coronavirus OC43; experiment: microbe, parasite or virus in culture; assay type: cell-based; conditions: Betacoronavirus 1, OC43, HeLa, 144 h, OC43 in HeLa cells, 6 days at 33° C., read-out: EC50
[5] = Cytotoxicity plates without OC43 virus (cell-titer-glo); assay type: cell-based, human; conditions: human; HeLa cells without OC43 virus, class symbols
Summary of the method: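 HeLa cells seeded overnight, then treated with serially diluted compounds in 2% FBS EMEM, uninfected, in parallel with the OC43 antiviral plates. Incubated 6 days at 33 °C; viability read by CellTiter-Glo luminescence.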

in vitro [6] = conditions: African green monkey, VeroE6 + CP (CC50), Vero E6-eGFP cells with CP-100356, absence of virus, MTS
HRV3C = HRV3C (Human rhinovirus 14, UniProt P03303); experiment: HRV3C protease assay (duplex, SAMDI-MS); assay type: biochemical, HRV; conditions: 30 mins preincubation
Summary of the method: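 Enzyme preincubated 30 min with compound at ambient temperature, then both biotinylated peptide substrates added (duplex with 3CLpro); 30 min reaction quenched with 0.5% formic acid (final). Product read by SAMDI-MS as product/internal-standard AUC ratio; IC50 from four-parameter fit.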

[7] = HRV3C, class symbols, read-out: HRV IC50

| Structure (SMILES) | CC50 (in vitro [1]) [µM] | IC50 (3CLpro) [µM] | IC50 (human cathepsin L) [µM] | EC50 [2] [µM] | EC50 ([3]; class symbols) [µM] | EC50 ([4]; class symbols) [µM] | CC50 at 6 days [5] [µM] | CC50 (in vitro [6]; numeric bounds) [µM] | IC50 (HRV3C; [7]) [µM] | IC50 (HRV3C; HRV IC50, HRV3C, class symbols) [µM] | CC50 (in vitro [6]; class symbols) [µM] | EC50 ([3]; numeric bounds) [µM] | EC50 ([4]; bound) [µM] | IC50 (HRV3C; HRV IC50, HRV3C, bound) [µM] | IC50 (HRV3C; HRV3C, bound, read-out: HRV IC50) [µM] |
| --- | --- | --- | --- | --- | --- | --- | --- | --- | --- | --- | --- | --- | --- | --- | --- |
| O=C(NCc1ccccc1)C(=O)[C@H](C[C@@H]1CCNC1=O)NC(=O)[C@@H]1[C@H]2CCC[C@H]2CN1C(=O)c1nc2ccccc2[nH]1 [Compound 35] | > 100 | 0.02 to 0.2 | ≥ 10 | 10 to 100 | 10 to 100 | 1 to 10 | > 10 | > 100 | 2 to 20 |  |  |  |  |  |  |
| COc1cccc2[nH]c(C(=O)N3C[C@]4(C[C@H]3C(=O)N[C@@H](C[C@@H]3CCCNC3=O)C(=O)CO)CC4(F)F)cc12 [Compound 47, (3S,6S)-1,1-difluoro-N-[(2S)-4-hydroxy-3-oxo-1-[(3S)-2-oxopiperidin-3-yl]butan-2-yl]-5-(4-methoxy-1H-indole-2-carbonyl)-5-azaspiro[2.4]heptane-6-carboxamide] | > 100 | 0.02 to 0.2 | ≥ 10 | 1 to 10 | 1 to 10 | 0.1 to 1 | > 10 | > 100 | 2 to 20 |  |  |  |  |  |  |
| COc1cccc2[nH]c(C(=O)N3C[C@@H]4CCC[C@@H]4[C@H]3C(=O)N[C@@H](CC3CC(C)(C)NC3=O)C(=O)C(=O)NC3CC3)cc12 (single isomer, unassigned) [Compound 95, (3S)-3-{[(1S,3aR,6aS)-2-(4-methoxy-1H-indole-2-carbonyl)-hexahydro-1H-cyclopenta[c]pyrrol-1-yl]formamido}-N-cyclopropyl-4-[(3R*)-5,5-dimethyl-2-oxopyrrolidin-3-yl]-2-oxobutanamide] | > 50 | 0.02 to 0.2 | ≥ 10 | 1 to 10 | 1 to 10 | 0.1 to 1 | > 10 | > 50 |  | 0.2 to 2 |  |  |  |  |  |
| O=C(NCc1ccccc1)C(=O)[C@H](C[C@@H]1CCNC1=O)NC(=O)[C@@H]1C[C@]2(CN1C(=O)c1cc3ccccc3[nH]1)CC2(F)F [Compound 22] | > 100 | 0.2 to 2 | 0.1 to 1 | 10 to 100 | 1 to 10 | 1 to 10 | > 10 | > 100 | 2 to 20 |  |  |  |  |  |  |
| O=C(NCCOCC1CCCC1)C(=O)[C@H](C[C@@H]1CCNC1=O)NC(=O)[C@@H]1[C@H]2CCC[C@H]2CN1C(=O)c1cc2c(Cl)cc(Cl)cc2[nH]1 [Compound 174] | 1 to 10 | 0.02 to 0.2 | 1 to 10 | < 1 | < 1 | 0.1 to 1 | > 10 |  | 2 to 20 |  | 1 to 10 |  |  |  |  |
| CC[C@@H]1C[C@@H](C(=O)N[C@@H](C[C@@H]2CCNC2=O)C(=O)C(=O)NCc2ccccc2)N(C(=O)c2cc3ccccc3[nH]2)C1 [Compound 28] | > 10 | 0.2 to 2 | < 0.1 | 1 to 10 | < 1 | 0.1 to 1 | > 10 | > 100 | 2 to 20 |  |  |  |  |  |  |
| COc1cccc2[nH]c(C(=O)N3C[C@]4(C[C@H]3C(=O)N[C@@H](C[C@@H]3CCCNC3=O)C(=O)COCc3ccccc3)CC4(F)F)cc12 [Compound 47A, (3S,6S)—N-[(2S)-4-(benzyloxy)-3-oxo-1-[(3S)-2-oxopiperidin-3-yl]butan-2-yl]-1,1-difluoro-5-(4-methoxy-1H-indole-2-carbonyl)-5-azaspiro[2.4]heptane-6-carboxamide] | > 10 | 0.02 to 0.2 | ≥ 10 | 1 to 10 | 1 to 10 | < 0.1 | > 10 | > 100 | 2 to 20 |  |  |  |  |  |  |
| CC(C)NC(=O)C(=O)C(C[C@@H]1CCCNC1=O)NC(=O)[C@@H]1[C@H]2CCC[C@H]2CN1C(=O)c1cc2ccccc2[nH]1 (stereo partly drawn) [Compound 18, (1S,3aR,6aS)-2-(1H-indole-2-carbonyl)-N-(4-(isopropylamino)-3,4-dioxo-1-((S)-2-oxopiperidin-3-yl)butan-2-yl)octahydrocyclopenta[c]pyrrole-1-carboxamide] | > 100 | 0.02 to 0.2 | ≥ 10 | 1 to 10 | 1 to 10 | 0.1 to 1 | > 10 | > 100 | 0.2 to 2 |  |  |  |  |  |  |
| COc1cccc2[nH]c(C(=O)N3C[C@@H]4CCC[C@@H]4[C@H]3C(=O)N[C@H](C=O)CC3CCNS3(=O)=O)cc12 (stereo partly drawn) [Compound 142, (1S,3aR,6aS)—N-((2S)-1-(1,1-dioxidoisothiazolidin-5-yl)-3-oxopropan-2-yl)-2-(4-methoxy-1H-indole-2-carbonyl)octahydrocyclopenta[c]pyrrole-1-carboxamide] | > 10 | 0.2 to 2 | ≥ 10 | > 50 |  |  | > 10 | > 50 |  |  |  | > 10 | > 10 | > 10 |  |
| COc1cccc2[nH]c(C(=O)N3C[C@]4(C[C@H]3C(=O)NC(C[C@@H]3CCCNC3=O)C(=O)C(=O)NC3CC3)CC4(F)F)cc12 (stereo partly drawn) [Compound 38, N-cyclopropyl-3-{[(3S,6S)-1,1-difluoro-5-(4-methoxy-1H-indole-2-carbonyl)-5-azaspiro[2.4]heptan-6-yl]formamido}-2-oxo-4-[(3S)-2-oxopiperidin-3-yl]butanamide] | > 100 | 0.02 to 0.2 | < 0.1 | 1 to 10 | 1 to 10 | 0.1 to 1 | > 10 | > 100 | 0.2 to 2 |  |  |  |  |  |  |
| COc1cccc2[nH]c(C(=O)N3C[C@H](C(F)(F)F)C[C@H]3C(=O)N[C@@H](C[C@@H]3CCCNC3=O)C(=O)CO)cc12 [Compound 45] | > 100 | 0.02 to 0.2 | ≥ 10 | < 1 | 1 to 10 | 0.1 to 1 | > 10 | > 100 | 2 to 20 |  |  |  |  |  |  |
| O=C1NCC[C@H]1C[C@H](NC(=O)[C@@H]1[C@H]2CCC[C@H]2CN1C(=O)c1cc2c(Cl)cc(-c3ccccc3)cc2[nH]1)C(=O)CO [Compound 120, (1S,3aR,6aS)-2-(4-chloro-6-phenyl-1H-indole-2-carbonyl)-N-[(2S)-4-hydroxy-3-oxo-1-[(3S)-2-oxopyrrolidin-3-yl]butan-2-yl]-hexahydro-1H-cyclopenta[c]pyrrole-1-carboxamide] | 1 to 10 | < 0.02 | ≥ 10 | < 1 | < 1 | < 0.1 | > 10 |  |  |  | > 10 |  |  |  | > 10 |
| O=C(NC1CC1)C(=O)[C@H](C[C@@H]1CCNC1=O)NC(=O)[C@@H]1CC2(CCN1C(=O)c1cc3c(Cl)cccc3[nH]1)CC2 [Compound 145] | > 50 | < 0.02 | 0.1 to 1 | 10 to 100 | 10 to 100 | 1 to 10 | > 10 | > 50 | 0.02 to 0.2 |  |  |  |  |  |  |
| O=C(NC1CC1)C(=O)[C@H](C[C@@H]1CCNC1=O)NC(=O)[C@@H]1CC2(CCN1C(=O)c1cc3c(Cl)cc(Cl)cc3[nH]1)CC2 [Compound 141] | > 10 | 0.02 to 0.2 | 0.1 to 1 | > 50 |  | 0.1 to 1 | > 10 | > 50 | 2 to 20 |  |  | > 50 |  |  |  |
| O=C(NC1CC1)C(=O)[C@H](C[C@@H]1CCNC1=O)NC(=O)[C@@H]1[C@H]2CCC[C@H]2CN1C(=O)c1cc2c(Cl)cc(Cl)cc2[nH]1 [Compound 148] | > 10 | 0.02 to 0.2 | ≥ 10 | < 1 | < 1 | 0.1 to 1 | > 10 | > 50 | 0.2 to 2 |  |  |  |  |  |  |
